Entries after “also recorded” stand apart in the source; their conditions may differ.
Assays:
[1] = MIRD extrapolation of rat tissue distribution data to permissible human dose; set-up: species or system human (from rat data)
Text: Accordingly the inventors have conducted the preliminary pharmacokinetic studies in human lung cancer patients at 1 mCi. Similar extrapolative calculation of the dosimetry for ^124I-NM404 afforded a similar 2 mCi dose level again based on projected dosimetry to the adrenals and bladder wall. Preliminary human data (5 patients), however, indicate very little uptake and retention of the agent into any abdominal organ (including the bladder and adrenals) with the exception of the liver which returns to background levels within 11 days.
Dosing of radioiodinated ^124I NM404 will be based on MIRD extrapolation of the iodine-131 dosimetry data derived from this ongoing study. The ^131I-NM404 dose is currently calculated as follows: Animal biodistribution data is used to determine the percentage of injected dose/organ at varying time points. These animal data are extrapolated to man by means of MIRD formalism (MIRDOSE PC v3.1) using standard conversion factors for differences in organ mass and anatomy between rat and standard man, providing predicted human organ doses; Based on these predicted doses, the permissible mCi dose to be injected into humans is determined using the maximal doses legally permitted by RDRC regulations for specific human tissue as defined in the Federal Register (21CFR Part 361.1) e.g. whole body, blood, blood forming tissues, eye lens, gonads—3 rem/dose; any other tissue—5 rem/dose. This approach was previously used to bring both NM324 and NM404 to clinical use, resulting in a calculated dose of 1 mCi.

[2] = tested on: A549 lung, PC-3 prostate, c-myc pancreatic tumors; assay: microPET imaging in lung, prostate and pancreatic mouse tumor models; assay type: in vivo
Text: Human pharmacokinetic studies have confirmed this finding as only 4% of the agent is cleared renally within 4 days of iv injection (majority is excreted via GI route).

[3] = tested on: prostate and A549 lung cancer tumors; assay: Comparative biodistribution in SCID mouse prostate and A549 lung cancer tumor models; conditions: in vivo
Experimental: In one such example in a rat mammary tumor model, tumor-to-normal tissue ratios reached a maximum at 96 hours with a tumor-to-blood ratio of 8.6 and tumor-to-muscle ratio of 20:1.
Extensive biodistribution data for the prototype agent ^125I-NM324 in several tumor models has previously been reported. […] For example, in a rat mammary tumor model, tumor-to-normal tissue ratios reached a maximum at 96 hours with a tumor-to-blood ratio of 8.6 and tumor-to-muscle ratio of 20:1. […] Comparative biodistribution data for NM324 and NM404 in SCID mice have been obtained in prostate and A549 lung cancer tumor models.

TRAMP prostate tumors = assay: Bioscan imaging of TRAMP mice prostate tumors; assay type: in vivo; conditions: 125I label 15 μCi, 1-8 days
Experimental: Following in vivo imaging of anesthetized mice, the prostate tumors were removed immediately, and imaged ex vivo on the same scanner (equipped with high resolution 1 mm collimator and 2-D acquisition and analysis software) in order to avoid tissue attenuation associated with the low energy of iodine-125 (FIG. 21). […] In an attempt to simulate bone metastases another experiment was performed wherein human PC-3 tumor cells were implanted into the tibia of immune compromised NUDE mice (n=6) according to a recent reports. Following tumor cell inoculation, mice were scanned serially by high-resolution microCT in order to monitor bone tumor development (FIG. 22). Once bone deterioration was detected, iodine-125 labeled NM404 was administered intravenously via tail vein. Mice were scanned for radioactivity and by microCT 4 days post NM404 administration. Radioactivity scans were fused with microCT scans (FIG. 23) to corroborate NM404 radioactivity and tumor location.

Liver CT-26 = assay: Tumor models examined with NM404 (Table 2); assay type: in vivo, Mouse xenograft; conditions: Colorectal adenocarcinoma
Text: (§1) NM404 has now been evaluated in 27 animal tumor models, including several lung, and it is clear that once the agent enters tumor cells, it reaches a metabolic dead end and becomes trapped. […] NM404 is also retained in spontaneous murine lung tumors (FIG. 13). Using ^125I-labeled NM404, the inventors have been able to image mammary and prostate tumors in mice in excess of 60 days. […] Imaging and tissue distribution studies performed in mouse models aimed at determining the uptake characteristics in a wide variety of tumor models are summarized in Table 2.
(§2) Although tumor retention can be explained by a lack of metabolic phospholipase enzymes in the tumor cell membranes, the exact mechanism of tumor cell uptake is unknown. […] The inventors are currently evaluating the selectivity of NM404 in a unique mouse tumor model developed at Wisconsin, wherein both preneoplastic hyperplasias and malignant adenocarcinomas form spontaneously in the mammary gland. […] If this initial observation is validated, then via genomic and or proteomic analysis the inventors may be able to identify a key genetic difference between malignant tumors and their non malignant predecessor cells. This could identify a completely new molecular therapeutic target that may be universal for all types of cancer.

Melanoma B16 = assay: Tumor models examined with NM404 (Table 2); assay type: in vivo, Mouse xenograft; conditions: Adenocarcinoma
Text: as §1, §2

LuCaP prostate = assay: Tumor models examined with NM404 (Table 2); assay type: in vivo, Mouse xenograft; conditions: Adenocarcinoma
Text: as §1, §2

[4] = Human safety study of unlabeled NM404 in normal volunteers; assay type: in vivo
Experimental: Formal toxicology studies of NM404 in male rats and rabbits were performed at the Toxicology Research Center of the State University of New York at Buffalo under the direction of Dr. Paul Kostyniak. Drug vehicle and drug product were provided to Dr. Kostyniak by Dr. Raymond Counsell of the University of Michigan for testing as described in the appended synopses of Study 27 and Study 28. […] Human safety studies of unlabeled NM404 were initiated in normal male humans at a mass of 10 times the anticipated imaging dose and about 21 times the anticipated therapy dose. […] This toxicology study was performed under GLP conditions.
Safety assessment in normal male subjects healthy normal female subjects were carried out and it was determined that a dose level of 3 μg/kg of C-NM-404 is safe to administer to male subjects. […] A dose level of 3 μg/kg of C-NM-404 is safe to administer to female subjects.

Glioma L9 and CNS-1 = assay: Tumor models examined with NM404 (Table 2); assay type: in vivo, Rat xenograft
Text: as §1, §2

spontaneous lung tumor = assay: Bioscan imaging of spontaneous lung tumor; assay type: in vivo, Apc^Min mouse; conditions: 4 days post injection
Text: FIG. 13. Bioscan image (A) obtained 4 days post ^125I-NM404 injection into an Apc^Min mouse.
as §1

[5] = MIRDOSE radiation dose estimates for the adult female; set-up: species or system human (from female rat biodistribution data)
Experimental: Dosimetry estimation regarding I-125-NM404 for an adult female patients were calculated based on SPECT imaging data using female non-tumor bearing rats following administration of I-131-NM404. The results are listed below:
The dosimetry data were calculated from SPECT imaging in rats using I-131-NM404 and then converted to I-125-NM404. The adrenal gland seems to be the dose-limiting or critical organ for radiation exposure. In the SPECT imaging experiments the thyroids of rats were unblocked. Thus, the thyroid calculations should be evaluated with caution.

SMILES	calculated dose for clinical use [1] [mCi]	5 rad dose to adrenals ([1]; new animal data) [mCi]	5 rad testes dose ([1]; new animal data) [mCi]	time to tumor uptake ([2]; after injection) [h]	tumor avidity ([2]; mouse, in vivo)	tumor uptake [3]	uptake into prostate tumor and benign hyperplasia (TRAMP prostate tumors)	NM404 Tumor Localization (Liver CT-26)	NM404 Tumor Localization (Melanoma B16)	NM404 Tumor Localization (LuCaP prostate)	dose level safe to administer ([4]; female subjects) [µg/kg]	dose level safe to administer ([4]; male subjects) [µg/kg]	toxicity ([4]; normal male humans, 10 times the anticipated imaging dose)	NM404 Tumor Localization (Glioma L9 and CNS-1)	uptake into spontaneous lung tumor (spontaneous lung tumor)	activity for 3 rads to Ovaries [5] [mCi]	activity for 5 rads to Adrenals [5] [mCi]	activity for 5 rads to Thyroids [5] [mCi]
C[N+](C)(C)CCOP(=O)([O-])OCCCCCCCCCCCCCCCCCCc1ccc(I)cc1 [NM-404, 18-(4-iodophenyl)-octadecylphosphocholine]	1	2.2	2.1	≤ 6	significant tumor avidity regardless of location in the body	exceeding 25 % of the injected dose	uptake of NM404 into prostate tumor but not benign hyperplasia; also recorded: intense uptake of radioactivity in the prostate tumor	Yes (Localization defined as >5% injected dose per gram tumor basis based on tissue distribution data)	Yes (Localization defined as >5% injected dose per gram tumor basis based on tissue distribution data)	Yes (Localization defined as >5% injected dose per gram tumor basis based on tissue distribution data)	3	3	no toxicity attributable to the drug substance	Yes (Localization defined as >5% injected dose per gram tumor basis based on tissue distribution data)	–	–	–	–
C[N+](C)(C)CCOP(=O)([O-])OCCCCCCCCCCCCCCCCCCc1ccc([125I])cc1 [Compound I-125-NM404]	–	–	–	–	–	–	–	–	–	–	–	–	–	–	intense uptake of NM404 into the tumor	20	18	4.5
